# Where a name gives a salt, the structure may show the parent alone.
# Molecular target: factor Xa (Homo sapiens, UniProt P00742)
# Test: Factor Xa assay (Test 1a), chromogenic
# Assay type: biochemical
# Set-up: purchased Enzyme Research Laboratories, Inc; South Bend, Ind
# Settings: in vitro factor Xa assay Test 1a; human factor Xa 0.5 nM, substrate S-2765 140 μM, 25° C.; Ki from IC50 corrected for substrate competition
# From the text: The ability of a compound of formula (I) to inhibit factor Xa, thrombin, plasmin, elastase, and trypsin may be assessed by determining the concentration of compound of formula (I) that inhibits enzyme activity by 50% (IC50). Purified enzymes are used in chromogenic assays. To determine the inhibition constant, the IC50 value is corrected for competition with substrate using the formula:
# Ki=IC50×(1/{1+((substrate concentration)/substrate Km)})
# where Km is the Michaelis-Menten constant. Y. -C. Chen and W. H. Prusoff, Biochem. Pharmacol. 22: […] (1973), which is incorporated herein by reference.
# TBS-PEG buffer (50 mM Tris-Cl, pH 7.8, 200 mM NaCl, 0.05% (w/v) PEG-8000, 0.02% (w/v) NaN3) is used for this assay. The IC50 is determined by combining in appropriate wells of a Costar half-area microtiter plate 25 μl human factor Xa (Enzyme Research Laboratories, Inc.; South Bend, Ind.) in TBS-PEG; 40 μl 10% (v/v) DMSO in TBS-PEG (uninhibited control) or various concentrations of the compound to be tested diluted in 10% (v/v) DMSO in TBS-PEG; and substrate S-2765 (N-benzyloxycarbonyl-D-Arg-Gly-L-Arg-p-nitroanilide; Kabi Pharmacia, Inc.; Franklin Ohio) in TBS-PEG.
# The assays are performed by pre-incubating the compound of formula (I) plus enzyme for 10 min, then the assay is initiated by adding substrate to obtain a final volume of 100 μl. The initial velocity of chromogenic substrate hydrolysis is measured by the change in absorbance at 405 nm using a Bio-tek Instruments kinetic plate reader (Ceres UV900HDi) at 25° C. during the linear portion of the time course (usually 1.5 min after addition of substrate). The concentration of inhibitor that causes a 50% decrease in the rate of substrate hydrolysis is predicted by linear regression after plotting the relative rates of hydrolysis (compared to the uninhibited control) versus the log of the compound of formula (I) concentration. The enzyme concentration is 0.5 nM and substrate concentration is 140 μM.
# factor Xa, sequence (P00742 235-488 limits assumed): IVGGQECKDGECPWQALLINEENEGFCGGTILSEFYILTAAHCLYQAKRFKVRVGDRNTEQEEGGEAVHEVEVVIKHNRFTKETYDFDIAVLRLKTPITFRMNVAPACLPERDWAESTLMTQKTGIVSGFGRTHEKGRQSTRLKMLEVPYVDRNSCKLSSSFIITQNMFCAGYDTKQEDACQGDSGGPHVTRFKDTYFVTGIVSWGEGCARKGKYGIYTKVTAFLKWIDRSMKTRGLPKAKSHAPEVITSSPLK
# factor Xa, sequence (P00742 41-179 limits assumed): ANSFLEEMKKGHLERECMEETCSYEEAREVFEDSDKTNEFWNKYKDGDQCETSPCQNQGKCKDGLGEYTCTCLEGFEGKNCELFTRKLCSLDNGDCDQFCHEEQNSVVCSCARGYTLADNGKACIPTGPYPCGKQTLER
row,Compound,Ki
1,"Cc1ccc(C(Cc2ccc(C(=N)N)cc2)C(=O)N[C@H](C(=O)N[C@@H](CCCNC(=N)N)C(N)=O)C2CCCCC2)cc1 (mixture of isomers) [Example 141, 2-(S)-{2-(S)-[3-(4-Carbamimidoyl-phenyl)-2-(R,S)-p-tolyl-propionylamino]-2-cyclohexyl-acetylamino}-5-guanidino-pentanoic acid amide hydrochloric acid salt]",100 nM
2,"N=C(N)c1ccc(CNC(=O)[C@@H](NC(=O)C(Cc2ccc(C(=N)N)cc2)c2cccc(Cl)c2)C2CCCCC2)cc1 (mixture of isomers) [Example 157, N-[(S)-(4-Carbamimidoyl-benzylcarbamoyl)-cyclohexyl-methyl]-3-(4-carbamimidoyl-phenyl)-2-(R,S)-(3-chloro-phenyl)-propionamide hydrochloric acid salt]",19 nM
3,"CC(C)OC(=O)[C@H](CCCNC(=N)N)NC(=O)[C@@H](NC(=O)C(Cc1ccc(C(=N)N)cc1)C1CCCCC1)C1CCCCC1 (mixture of isomers) [Example 181, 2-(S)-{2-[3-(4-Carbamimidoyl-phenyl)-2-(R,S)-cyclohexyl-propionylamino]-2-(S)-cyclohexyl-acetylamino}-5-guanidino-pentanoic acid isopropyl ester hydrochloric acid salt]",13 nM
4,"N=C(N)NCCC[C@H](NC(=O)[C@@H](NC(=O)C(Cc1ccc(C(=N)N)cc1)C1CCCCC1)C1CCCCC1)C(=O)NCCc1ccccc1 (mixture of isomers) [Example 184, 2-(S)-{2-(R,S)-[3-(4-Carbamimidoyl-phenyl)-2-cyclohexyl-propionylamino]-2-(S)-cyclohexyl-acetylamino}-5-guanidino-pentanoic acid phenethyl-amide trifluoroacetic acid salt]",19 nM
5,"N=C(N)c1ccc(CNC(=O)[C@@H](NC(=O)C(Cc2ccc(C(=N)N)cc2)c2ccc3ccccc3c2)C2CCCCC2)cc1 (mixture of isomers) [Example 228, N-[(S)-(4-Carbamimidoyl-benzylcarbamoyl)-cyclohexyl-methyl]-3-(4-carbamimidoyl-phenyl)-2-(R,S)-naphthalen-2-yl-propionamide hydrochloric acid salt]",3 nM
6,"N=C(N)NCCCC(NC(=O)C(NC(=O)C(Cc1ccc(C(=N)N)cc1)C1CCCCC1)C1CCCCC1)C(N)=O (single isomer, unassigned) [Example 110]",2 nM
7,"N=C(N)NCCCC(NC(=O)C(NC(=O)C(Cc1ccc(C(=N)N)cc1)C1CCCCC1)C1CCCCC1)C(N)=O (single isomer, unassigned; less polar) [Example 4]",2 nM
8,"CCOC(=O)C(CCCNC(=N)N)NC(=O)C(NC(=O)C(Cc1ccc(C(=N)N)cc1)C1CCCCC1)C1CCCCC1 (single isomer, unassigned; less polar) [Example 5]",5 nM
9,"N=C(N)NCCCC(NC(=O)C(NC(=O)C(Cc1ccc(C(=N)N)cc1)C1CCCCC1)C1CCCCC1)C(=O)O (single isomer, unassigned; less polar) [Example 6]",5 nM
10,"N=C(N)c1ccc(CC(C(=O)NC(C(=O)NCCN2C(=O)CNC2=O)C2CCCCC2)C2CCCCC2)cc1 (single isomer, unassigned; less polar) [Example 7]",7650 nM
11,"C[n+]1ccc(CNC(=O)[C@@H](NC(=O)C(Cc2ccc(C(=N)N)cc2)c2ccccc2)C2CCCCC2)cc1 (single isomer, unassigned; less polar) [Example 86]",600 nM
12,"N=C(N)c1ccc(CNC(=O)C(NC(=O)C(Cc2ccc(C(=N)N)cc2)C2CCCCC2)C2CCCCC2)cc1 (single isomer, unassigned; less polar) [Example 111]",59 nM
13,"N=C(N)c1ccc(CC(C(=O)NC(C(=O)NCC2CCN(C(=N)N)CC2)C2CCCCC2)C2CCCCC2)cc1 (single isomer, unassigned; less polar) [Example 113]",6 nM
14,"N=C(N)NCCCC(NC(=O)C(NC(=O)C(Cc1ccc(C(=N)N)cc1)c1ccc(Br)cc1)C1CCCCC1)C(N)=O (single isomer, unassigned; less polar) [Example 119]",11 nM
15,"N=C(N)NCCCC(NC(=O)C(NC(=O)C(Cc1ccc(C(=N)N)cc1)c1cccc(Cl)c1)C1CCCCC1)C(N)=O (single isomer, unassigned; less polar) [Example 124]",1 nM
16,"N=C(N)NCCCC(NC(=O)C(NC(=O)C(Cc1ccc(C(=N)N)cc1)c1cccc(F)c1)C1CCCCC1)C(N)=O (single isomer, unassigned; less polar) [Example 131]",5 nM
17,"N=C(N)NCCCC(NC(=O)C(NC(=O)C(Cc1ccc(C(=N)N)cc1)c1cccc(Br)c1)C1CCCCC1)C(N)=O (single isomer, unassigned; less polar) [Example 133]",1 nM
18,"CC(=N)N1CCC(CNC(=O)C(NC(=O)C(Cc2ccc(C(=N)N)cc2)C2CCCCC2)C2CCCCC2)CC1 (single isomer, unassigned; less polar) [Example 137]",4 nM

row,Compound,Ki
1,"N=C(N)c1ccc(CNC(=O)C(NC(=O)C(Cc2ccc(C(=N)N)cc2)c2cccc(F)c2)C2CCCCC2)cc1 (single isomer, unassigned; less polar) [Example 149]",23 nM
2,"N=C(N)c1ccc(CNC(=O)C(NC(=O)C(Cc2ccc(C(=N)N)cc2)c2cccc(Br)c2)C2CCCCC2)cc1 (single isomer, unassigned; less polar) [Example 151]",4 nM
3,"Cc1ccc(C(Cc2ccc(C(=N)N)cc2)C(=O)NC(C(=O)NCc2ccc(C(=N)N)cc2)C2CCCCC2)cc1 (single isomer, unassigned; less polar) [Example 154]",310 nM
4,"Cc1cccc(C(Cc2ccc(C(=N)N)cc2)C(=O)NC(C(=O)NCC2CCN(C(=N)N)CC2)C2CCCCC2)c1 (single isomer, unassigned; less polar) [Example 159]",11 nM
5,"N=C(N)c1ccc(CC(C(=O)NC(C(=O)NCC2CCN(C(=N)N)CC2)C2CCCCC2)c2cccc(F)c2)cc1 (single isomer, unassigned; less polar) [Example 161]",8 nM
6,"Cc1ccccc1C(Cc1ccc(C(=N)N)cc1)C(=O)NC(C(=O)NCC1CCN(C(=N)N)CC1)C1CCCCC1 (single isomer, unassigned; less polar) [Example 163]",1 nM
7,"N=C(N)c1ccc(CC(C(=O)NC(C(=O)NCC2CCN(C(=N)N)CC2)C2CCCCC2)c2cccc(Br)c2)cc1 (single isomer, unassigned; less polar) [Example 165]",2 nM
8,"Cc1cccc(C(Cc2ccc(N)cc2)C(=O)NC(C(=O)NCC2CCN(C(=N)N)CC2)C2CCCCC2)c1 (single isomer, unassigned; less polar) [Example 167]",74 nM
9,"N=C(N)c1ccc(CC(C(=O)NC(C(=O)NCC2CCN(C(=N)N)CC2)C2CCCCC2)c2ccc3ccccc3c2)cc1 (single isomer, unassigned; less polar) [Example 170]",33 nM
10,"Cc1ccc(C(Cc2ccc(C(=N)N)cc2)C(=O)NC(C(=O)NCC2CCN(C(=N)N)CC2)C2CCCCC2)cc1 (single isomer, unassigned; less polar) [Example 172]",72 nM
11,"N=C(N)c1ccc(CC(C(=O)NC(C(=O)NCC2CCN(C(=N)N)CC2)C2CCCCC2)c2cccc(Cl)c2)cc1 (single isomer, unassigned; less polar) [Example 176]",1 nM
12,"N=C(N)c1ccc(CC(C(=O)NC(C(=O)NCC2CCN(C(=N)N)CC2)C2CCCCC2)c2ccc(Br)cc2)cc1 (single isomer, unassigned; less polar) [Example 177]",1 nM
13,"CN(Cc1ccccc1)C(=O)[C@H](CCCNC(=N)N)NC(=O)C(NC(=O)C(Cc1ccc(C(=N)N)cc1)C1CCCCC1)C1CCCCC1 (single isomer, unassigned; less polar) [Example 183]",25 nM
14,"CCCCOC(=O)[C@H](CCCNC(=N)N)NC(=O)[C@@H](NC(=O)C(Cc1ccc(C(=N)N)cc1)C1CCCCC1)C1CCCCC1 (single isomer, unassigned; less polar) [Example 188]",22 nM
15,"CCCOC(=O)C(CCCNC(=N)N)NC(=O)C(NC(=O)C(Cc1ccc(C(=N)N)cc1)C1CCCCC1)C1CCCCC1 (single isomer, unassigned; less polar) [Example 189]",20 nM
16,"N=C(N)c1ccc(CC(C(=O)N[C@H](C(=O)NCC2CCN(C(=N)N)CC2)C2CCCCC2)c2ccc(Cl)cc2)cc1 (single isomer, unassigned; less polar) [Example 216]",19 nM
17,"N=C(N)c1ccc(CC(C(=O)N[C@H](C(=O)NCC2CCC(C(=N)N)CC2)C2CCCCC2)c2cccc(Br)c2)cc1 (single isomer, unassigned; less polar) [Example 219]",5 nM

# From patent US6759420B1, “Arylalkanoyl derivatives, processes for their preparation, their use and pharmaceutical compositions containing them” (Aventis Pharma Deutschland GmbH, priority 1999, dated 2004)
